The numbers were not newly measured in patent US20090137653A1, “SUBSTITUTED BENZYLAMINES AS CYP2A INHIBITORS AND USES THEREOF TO TREAT NICOTINE DEPENDENCE” (INFLAYZME PHARMACEUTICALS LTD., priority 2005, published 2009), which cites them from elsewhere.

One data set has as its target CYP2A6 (Homo sapiens, UniProt P11509). Particulars: read-out: CYP2A6 Ki; human liver microsomes.

The structures appear in SMILES notation.

Sequence of CYP2A6 (P11509 whole entry): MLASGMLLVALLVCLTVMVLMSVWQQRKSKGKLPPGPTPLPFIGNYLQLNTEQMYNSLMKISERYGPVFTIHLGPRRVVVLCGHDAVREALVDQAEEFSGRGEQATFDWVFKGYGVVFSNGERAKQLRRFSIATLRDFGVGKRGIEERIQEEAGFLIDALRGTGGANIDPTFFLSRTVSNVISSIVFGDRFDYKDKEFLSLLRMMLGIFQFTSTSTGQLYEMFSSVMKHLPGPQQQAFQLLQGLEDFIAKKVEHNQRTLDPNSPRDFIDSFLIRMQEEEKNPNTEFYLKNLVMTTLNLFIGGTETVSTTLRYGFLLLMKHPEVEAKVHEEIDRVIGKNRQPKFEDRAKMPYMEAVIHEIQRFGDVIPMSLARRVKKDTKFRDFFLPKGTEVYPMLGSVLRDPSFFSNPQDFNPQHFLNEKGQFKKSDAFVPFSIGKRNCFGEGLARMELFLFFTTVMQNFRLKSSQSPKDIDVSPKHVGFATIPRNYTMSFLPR

`N[C@@H]1C[C@H]1c1ccccc1` (racemic) [tranylcypromine]: the Ki (as a rule, a dissociation constant, usually derived from enzyme kinetics or from competition with a known ligand) at CYP2A6 was 0.2 µM.

Consider `CN1CCCC1c1cccnc1` (stereo not drawn) [nicotine], for which the half-life (usually how long it takes for the measured level to halve) (in vivo) is 1 to 2 h. Moreover, the “eliminated by first pass effect” value (taken orally, liver) is reported as “around 70%”.
